In ChEMBL document CHEMBL2390840, “An analysis of the synthetic tryptamines AMT and 5-MeO-DALT: emerging 'Novel Psychoactive Drugs'” (Bioorg Med Chem Lett, 2013):

Key:
[1] = molecular target: Alpha-2B adrenergic receptor (Homo sapiens, UniProt P18089); test: Displacement of [3H]Clonidine from human recombinant adrenergic alpha2B receptor expressed in HEK293T cells after 1 to […] by scintillation counting analysis; type: cell-based, HEK-293T
[2] = molecular target: Alpha-2C adrenergic receptor (Homo sapiens, UniProt P18825); test: Displacement of [3H]Clonidine from human recombinant adrenergic alpha2C receptor expressed in MDCK cells after 1 to […] by scintillation counting analysis; type: cell-based
D(3) dopamine receptor = D(3) dopamine receptor (Homo sapiens, UniProt P35462); test: Displacement of [3H]N-methylspiperone from human recombinant dopamine D3 receptor expressed in HEK293 cells after 1 to […] by scintillation counting analysis; type: cell-based
[3] = Displacement of [3H]DTG from sigma 2 receptor in rat PC12 cells after 1 to […] by scintillation counting analysis; type: cell-based; details: pc-12
[4] = molecular target: T1, Sodium-dependent noradrenaline transporter (Homo sapiens, UniProt P23975); test: Displacement of [3H]Nisoxetine from human recombinant norepinephrine transporter expressed in HEK293 cells after 1 to […] by scintillation counting analysis; type: cell-based
[5] = molecular target: Alpha-1B adrenergic receptor (Homo sapiens, UniProt P35368); test: Displacement of [3H]Prazosin from human recombinant adrenergic alpha1B receptor expressed in HEK293 cells after 1 to […] by scintillation counting analysis; type: cell-based
[6] = molecular target: Alpha-1A adrenergic receptor (Homo sapiens, UniProt P35348); test: Displacement of [3H]Prazosin from human recombinant adrenergic alpha1A receptor expressed in HEK293 cells after 1 to […] by scintillation counting analysis; type: cell-based
D(2) dopamine receptor = D(2) dopamine receptor (Homo sapiens, UniProt P14416); test: Displacement of [3H]N-methylspiperone from human recombinant dopamine D2 receptor expressed in HEK293 cells after 1 to […] by scintillation counting analysis; type: cell-based
[7] = molecular target: 5-hydroxytryptamine receptor 1B (Homo sapiens, UniProt P28222); test: Displacement of [3H][…] from human recombinant 5-HT1B receptor expressed in HEK293 cells after 1 to […] by scintillation counting analysis; type: cell-based
[8] = molecular target: T1, Sodium-dependent noradrenaline transporter; test: Inhibition of [3H]norepinephrine uptake at human NET expressed in HEK293 cells preincubated for 10 mins prior to substrate addition measured after 4 mins by […]; type: cell-based
[9] = molecular target: Muscarinic acetylcholine receptor M2 (Homo sapiens, UniProt P08172); test: Displacement of [3H]QNB from human recombinant muscarinic M2 receptor expressed in CHO cells after 1 to […] by scintillation counting analysis; type: cell-based
[10] = molecular target: T2, 5-hydroxytryptamine receptor 2A (Homo sapiens, UniProt P28223); test: Agonist activity at human 5-HT2A receptor expressed in HEK293 cells assessed as increase in calcium mobilization by FLIPR assay; type: functional, cell-based
[11] = molecular target: T2, 5-hydroxytryptamine receptor 2A; test: Displacement of [3H]Ketanserin from human recombinant 5-HT2A receptor expressed in HEK293T cells after 1 to […] by scintillation counting analysis; type: cell-based, HEK-293T

T2 sequence (P28223 whole entry): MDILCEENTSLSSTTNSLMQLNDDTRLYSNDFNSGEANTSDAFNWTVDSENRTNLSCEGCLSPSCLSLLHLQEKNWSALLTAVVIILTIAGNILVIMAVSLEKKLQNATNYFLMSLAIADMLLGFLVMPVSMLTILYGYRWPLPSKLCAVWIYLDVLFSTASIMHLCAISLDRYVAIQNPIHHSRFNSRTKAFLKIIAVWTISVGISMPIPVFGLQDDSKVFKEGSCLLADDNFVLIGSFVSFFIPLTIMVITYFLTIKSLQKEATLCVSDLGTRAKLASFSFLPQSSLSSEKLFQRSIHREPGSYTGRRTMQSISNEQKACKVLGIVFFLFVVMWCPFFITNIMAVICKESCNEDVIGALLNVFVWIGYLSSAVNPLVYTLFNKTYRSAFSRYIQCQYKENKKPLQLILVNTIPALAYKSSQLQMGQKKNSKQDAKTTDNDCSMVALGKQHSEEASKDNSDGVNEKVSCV
T1 sequence (P23975 whole entry): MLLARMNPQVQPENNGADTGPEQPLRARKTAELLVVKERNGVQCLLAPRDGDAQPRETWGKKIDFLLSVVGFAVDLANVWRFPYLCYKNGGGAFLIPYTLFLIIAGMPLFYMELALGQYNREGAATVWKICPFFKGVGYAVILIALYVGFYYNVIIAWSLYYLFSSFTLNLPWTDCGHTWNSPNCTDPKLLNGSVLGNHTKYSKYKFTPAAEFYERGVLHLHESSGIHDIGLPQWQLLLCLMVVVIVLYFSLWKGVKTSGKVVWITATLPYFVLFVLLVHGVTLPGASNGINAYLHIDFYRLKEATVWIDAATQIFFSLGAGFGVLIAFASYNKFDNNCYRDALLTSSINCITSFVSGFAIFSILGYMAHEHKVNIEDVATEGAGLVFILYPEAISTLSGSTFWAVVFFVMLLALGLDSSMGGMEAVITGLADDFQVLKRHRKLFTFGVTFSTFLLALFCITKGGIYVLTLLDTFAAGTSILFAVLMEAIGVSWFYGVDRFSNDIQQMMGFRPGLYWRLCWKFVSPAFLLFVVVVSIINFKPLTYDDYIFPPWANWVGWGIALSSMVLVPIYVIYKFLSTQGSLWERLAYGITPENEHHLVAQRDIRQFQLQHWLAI
Sequence of Muscarinic acetylcholine receptor M2 (P08172 whole entry): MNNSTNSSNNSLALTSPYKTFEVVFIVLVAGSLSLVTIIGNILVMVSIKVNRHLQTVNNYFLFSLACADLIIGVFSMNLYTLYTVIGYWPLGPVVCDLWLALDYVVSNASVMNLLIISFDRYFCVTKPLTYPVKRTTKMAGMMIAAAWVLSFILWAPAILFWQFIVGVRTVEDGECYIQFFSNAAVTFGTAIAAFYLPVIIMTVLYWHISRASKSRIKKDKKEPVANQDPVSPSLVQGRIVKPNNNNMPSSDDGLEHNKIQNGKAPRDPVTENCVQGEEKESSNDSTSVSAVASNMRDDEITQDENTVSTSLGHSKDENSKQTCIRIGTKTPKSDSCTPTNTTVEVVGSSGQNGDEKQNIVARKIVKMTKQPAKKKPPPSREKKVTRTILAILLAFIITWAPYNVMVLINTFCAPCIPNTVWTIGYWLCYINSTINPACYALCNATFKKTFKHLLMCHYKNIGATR
Sequence of Alpha-2C adrenergic receptor (P18825 whole entry): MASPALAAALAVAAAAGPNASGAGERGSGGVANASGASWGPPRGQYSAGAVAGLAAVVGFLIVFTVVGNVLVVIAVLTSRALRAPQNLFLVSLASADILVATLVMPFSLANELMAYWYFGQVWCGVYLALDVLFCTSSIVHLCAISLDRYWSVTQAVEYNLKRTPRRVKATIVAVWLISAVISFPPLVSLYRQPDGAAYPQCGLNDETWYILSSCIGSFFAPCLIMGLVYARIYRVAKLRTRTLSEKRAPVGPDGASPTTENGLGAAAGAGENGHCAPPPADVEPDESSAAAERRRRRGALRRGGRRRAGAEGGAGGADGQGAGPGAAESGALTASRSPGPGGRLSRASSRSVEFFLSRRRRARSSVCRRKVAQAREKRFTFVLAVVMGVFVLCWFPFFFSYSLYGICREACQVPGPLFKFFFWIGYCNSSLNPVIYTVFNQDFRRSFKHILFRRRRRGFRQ
Sequence of Alpha-1B adrenergic receptor (P35368 whole entry): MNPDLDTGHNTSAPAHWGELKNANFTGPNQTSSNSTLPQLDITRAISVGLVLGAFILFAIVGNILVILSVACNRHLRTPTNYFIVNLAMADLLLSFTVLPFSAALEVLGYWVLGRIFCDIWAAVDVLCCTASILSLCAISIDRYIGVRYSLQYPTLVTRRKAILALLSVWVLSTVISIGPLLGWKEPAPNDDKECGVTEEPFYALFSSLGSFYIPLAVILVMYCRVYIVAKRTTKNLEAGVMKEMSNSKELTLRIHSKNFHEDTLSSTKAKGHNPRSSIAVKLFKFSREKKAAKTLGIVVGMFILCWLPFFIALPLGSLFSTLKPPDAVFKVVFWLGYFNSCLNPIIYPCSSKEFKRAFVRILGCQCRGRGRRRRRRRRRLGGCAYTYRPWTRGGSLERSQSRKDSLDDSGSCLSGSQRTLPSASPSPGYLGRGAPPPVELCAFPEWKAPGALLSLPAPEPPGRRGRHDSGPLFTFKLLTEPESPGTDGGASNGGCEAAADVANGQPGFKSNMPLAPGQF
Sequence of Alpha-1A adrenergic receptor (P35348 whole entry): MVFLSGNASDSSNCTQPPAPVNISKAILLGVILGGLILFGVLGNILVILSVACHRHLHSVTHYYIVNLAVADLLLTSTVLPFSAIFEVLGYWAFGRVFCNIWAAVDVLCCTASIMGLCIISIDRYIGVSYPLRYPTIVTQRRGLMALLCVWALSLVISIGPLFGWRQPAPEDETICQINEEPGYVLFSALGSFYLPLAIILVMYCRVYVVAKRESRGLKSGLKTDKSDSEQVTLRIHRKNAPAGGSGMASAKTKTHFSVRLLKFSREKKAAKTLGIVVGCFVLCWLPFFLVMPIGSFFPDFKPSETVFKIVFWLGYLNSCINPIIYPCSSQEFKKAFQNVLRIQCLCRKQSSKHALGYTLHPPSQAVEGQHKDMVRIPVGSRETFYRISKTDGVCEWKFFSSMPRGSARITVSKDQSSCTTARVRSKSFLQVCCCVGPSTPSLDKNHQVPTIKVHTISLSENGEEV
Sequence of 5-hydroxytryptamine receptor 1B (P28222 whole entry): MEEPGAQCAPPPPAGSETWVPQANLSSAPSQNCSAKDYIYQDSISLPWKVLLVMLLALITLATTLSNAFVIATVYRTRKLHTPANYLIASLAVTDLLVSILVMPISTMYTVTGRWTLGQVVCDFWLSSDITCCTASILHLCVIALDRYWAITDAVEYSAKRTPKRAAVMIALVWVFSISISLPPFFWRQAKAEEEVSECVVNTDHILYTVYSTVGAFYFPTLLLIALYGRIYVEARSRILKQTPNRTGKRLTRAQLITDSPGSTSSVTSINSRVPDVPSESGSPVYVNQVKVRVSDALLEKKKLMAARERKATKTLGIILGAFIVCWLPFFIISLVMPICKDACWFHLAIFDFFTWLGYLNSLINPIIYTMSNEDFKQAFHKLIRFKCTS
Sequence of Alpha-2B adrenergic receptor (P18089 whole entry): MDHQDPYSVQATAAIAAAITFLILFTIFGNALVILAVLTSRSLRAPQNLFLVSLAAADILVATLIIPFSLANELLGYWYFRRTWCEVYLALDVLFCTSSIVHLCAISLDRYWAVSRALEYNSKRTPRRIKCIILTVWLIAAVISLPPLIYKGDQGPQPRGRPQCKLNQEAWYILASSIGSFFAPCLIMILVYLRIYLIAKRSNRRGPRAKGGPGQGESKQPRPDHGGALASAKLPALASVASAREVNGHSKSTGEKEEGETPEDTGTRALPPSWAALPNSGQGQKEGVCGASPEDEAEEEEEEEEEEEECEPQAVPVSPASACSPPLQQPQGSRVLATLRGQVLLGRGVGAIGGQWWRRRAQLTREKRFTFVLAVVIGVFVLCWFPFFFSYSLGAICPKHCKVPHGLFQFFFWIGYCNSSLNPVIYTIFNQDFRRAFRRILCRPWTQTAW
Sequence of D(3) dopamine receptor (P35462 whole entry): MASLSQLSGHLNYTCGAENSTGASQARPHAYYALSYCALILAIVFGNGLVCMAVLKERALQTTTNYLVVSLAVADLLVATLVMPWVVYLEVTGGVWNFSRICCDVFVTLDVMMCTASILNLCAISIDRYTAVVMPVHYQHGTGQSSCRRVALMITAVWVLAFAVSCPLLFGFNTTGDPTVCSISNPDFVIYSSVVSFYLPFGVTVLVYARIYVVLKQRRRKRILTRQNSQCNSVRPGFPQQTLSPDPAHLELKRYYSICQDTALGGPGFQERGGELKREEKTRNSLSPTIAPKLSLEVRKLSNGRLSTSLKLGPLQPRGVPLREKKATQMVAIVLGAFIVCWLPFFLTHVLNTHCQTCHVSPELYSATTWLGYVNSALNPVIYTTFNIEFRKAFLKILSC
Sequence of D(2) dopamine receptor (P14416 whole entry): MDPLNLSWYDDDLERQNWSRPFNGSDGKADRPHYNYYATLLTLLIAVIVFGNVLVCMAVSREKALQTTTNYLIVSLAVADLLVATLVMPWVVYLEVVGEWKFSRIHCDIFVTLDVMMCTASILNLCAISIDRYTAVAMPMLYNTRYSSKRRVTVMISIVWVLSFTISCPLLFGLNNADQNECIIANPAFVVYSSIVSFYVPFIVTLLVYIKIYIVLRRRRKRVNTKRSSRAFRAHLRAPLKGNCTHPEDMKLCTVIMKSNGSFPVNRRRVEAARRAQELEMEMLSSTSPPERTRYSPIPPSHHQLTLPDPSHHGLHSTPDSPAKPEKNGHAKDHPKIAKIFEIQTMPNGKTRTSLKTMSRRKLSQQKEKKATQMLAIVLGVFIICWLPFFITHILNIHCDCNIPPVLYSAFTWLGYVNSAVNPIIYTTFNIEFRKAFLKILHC

| Compound | Ki [1] [µM] | Ki [2] [µM] | Ki (D(3) dopamine receptor) [µM] | pKi [3] | Ki [4] [µM] | Ki [5] [µM] | Ki [6] [µM] | Ki (D(2) dopamine receptor) [µM] | Ki [7] [µM] | IC50 [8] [µM] | Ki [8] [µM] | Ki [9] [µM] | EC50 ([10]; read-out: EC50) [µM] | EC50 ([10]; read-out: pEC50 (converted)) [µM] | Ki [11] [µM] |
| --- | --- | --- | --- | --- | --- | --- | --- | --- | --- | --- | --- | --- | --- | --- | --- |
| CC(N)Cc1c[nH]c2ccccc12 (stereo unspecified) | > 10 | > 10 | > 10 | < 5 | > 10 | > 10 | > 10 | > 10 | 0.559 | 3.72 | 0.642 | > 10 | – | – | – |
| C=CCN(CC=C)CCc1c[nH]c2ccc(OC)cc12 | – | – | – | – | – | – | – | – | – | – | – | > 10 | 0.0028 | 0.0275 | 0.555 |
